Measurements as given in publication PMC12287261 (Scientific Reports, 2025).

Tested on: CamASNase
Assay: initial rates at varied L-asparagine, Lineweaver-Burk
Format: biochemical, Chryseomicrobium amylolyticum
Conditions: pH 7.4, 37 °C; L-asparagine 1 to 80 µM

Km: 6.36 µM
Compound: NC(=O)C[C@H](N)C(=O)O [L-asparagine]
